Source: US8535730B1, “Anticalculus oral composition” (Colgate-Palmolive Company, priority 1985, dated 2013)
Read-outs that look alike come from different tables or passages of the source.

Key:
[1] = Method: The in vitro formation of HAP is measured titrimetrically via a pH stat procedure. Stock solutions of 0.1M CaCl2 and 0.1M NaH2PO4 are prepared fresh in carbonate-free deionized distilled water. To 23 ml CO2-free deionized water 1.0 ml. of the stock phosphate solution and 1.0 ml. of an aqueous solution of 1×10^−4 of the anticalculus agent being tested are added followed by 1.0 ml. of the stock calcium-chloride solution which initiates the reaction. The reaction is conducted at pH 7.4 under a nitrogen atmosphere. Consumption of 0.1N NaOH is recorded automatically from which the time required for crystal formation is determined.
[2] = test system: acid phosphatase, alkaline phosphatase, and inorganic pyrophosphatase; details: for Percent Orthophosphate Released in 90 min.: pH 7.0, 37° C.
Method: Enzymatic hydrolysis is conducted in 100 millimolar morpholinopropane sulfonic acid—NaOH buffer solution (pH 7.0) containing 1.3 mg./ml of TSPP. Inhibitors of this invention are added (except to the control) to a final concentration of 1,000 ppm fluoride ion (from NaF) and 0.5% of the sodium salt of hydrolyzed methoxyethylene-maleic anhydride (1:1) copolymer, M.W. 70,000 (Gantrez S-97 Pharmaceutical Grade). Equal activities of acid phosphatase, alkaline phosphatase, and inorganic pyrophosphatase are then added to yield a total phosphatase activity of 0.3 units/ml. Samples of the test solution are taken and total orthophosphate available in each sample measured after 3 hours hydrolysis in 4N HCl at 100° C. The reaction mixture is incubated at 37° C. with shaking and aliquots taken at appropriate times through at least 90 minutes for orthophosphate determination.

SMILES | HAP formation inhibition results compared with TSPP (in words) ([1]; water, saliva, pyrophosphatase, alkaline phosphatase, TKPP instead of TSPP) | Enzymatic hydrolysis results compared with TSPP (in words) ([2]; equivalent amounts of TKPP substituted for TSPP, with and without inhibitors) | Time of Crystal Growth Inhibition ([1]; Water, pH 7.4, nitrogen atmosphere) | Delay of HAP formation (in words) ([1]; in water) | Time of Crystal Growth Inhibition ([1]; incubated with Alk. Phosphatase, pH 7.4) | Time of Crystal Growth Inhibition ([1]; incubated with Pyrophosphatase, pH 7.4) | Time of Crystal Growth Inhibition ([1]; incubated with Saliva, pH 7.4) | Delay period of HAP formation (in words) ([1]; incubated with pyrophosphatase and alkaline phosphatase) | Effectiveness in delaying HAP formation (in words) ([1]; incubated with saliva) | Percent Orthophosphate Released in 90 min. ([2]; Control (no inhibitors), 1.3 mg./ml TSPP, total phosphatase activity 0.3 units/ml) | Percent Orthophosphate Released in 90 min. ([2]; With Inhibitors: 1,000 ppm fluoride ion (from NaF) and 0.5% Gantrez S-97, 0.3 units/ml phosphatase) | Percent Relative Protection (reduction of hydrolysis of P-O-P bonds with inhibitors) ([2]; With inhibitors vs control, 90 min.)
O=P([O-])([O-])OP(=O)([O-])[O-].[K+].[K+].[K+].[K+] [TKPP, tetrapotassium pyrophosphate] | Substantially the same results | Substantially the same results |  |  |  |  |  |  |  |  |  | 
O=P([O-])([O-])OP(=O)([O-])[O-].[Na+].[Na+].[Na+].[Na+] [TSPP, Tetrasodium pyrophosphate] |  |  | 0.8 h | significantly delays HAP formation | 0.0 h | 0.3 h | 0.4 h | drastically reduces the delay period | drastically reduced | 98% | 58% | 41%
